Test results as given in US20250235403A1, “COMPOSITIONS AND METHODS OF THE DELIVERY OF ACTIVE AGENTS INCLUDING NUCLEIC ACIDS” (Ohio State Innovation Foundation, priority 2021, published 2025).

Experiments:
MC38 cells = test: In vitro gene regulation by R848 NE, IVM NE, R848-IVM NE; type: cell-based, murine; conditions: 8 μM, 24 hours
Description: MC38 cells were seeded at 3×10^5 cells/well in 6-well plates 24 hours before treatments. […] R848 and IVM were both treated at 8 μM, either as free drug solution or in squalene NE. Total RNA was extracted using TRI reagent (Zymo Research) per manufacturer protocol. cDNA was prepared by high-capacity cDNA reverse transcription kit (Invitrogen, Waltham, MA, USA), and real-time qPCR (RT-qPCR) was done using SsoAdvanced™ Universal SYBRR Green Supermix (Bio-Rad Laboratories, Hercules, CA) on a QuantStudio 7 Flex Real-time PCR System. RT-qPCR primers for murine Calreticulin, Hmgb1, Lc3b, and Actb were purchased from Sigma-Aldrich. Actb was selected as the housekeeping gene control. The relative amount of RNA level was calculated and compared according to the 2−ΔΔCt method.

[1] = Saturated solubility study; type: physicochemical; conditions: in squalene-based NE compared with PBS solvent
Description: In the saturated solubility study, R848 or IVM were dissolved in PBS or formulated in NE at 2 mg/ml and incubated at room temperature for 24 hours. Insoluble solid drugs were pelleted down by centrifugation. Supernatants were collected for concentration analysis. R848 concentrations were quantified by UV-Vis spectrometry at 320 nm using a NanoDrop 2000 spectrophotometer. IVM concentrations were quantified by high-performance liquid chromatography (HPLC) using an isocratic mobile phase composed of water/methanol/acetonitrile (8:36:56, v/v/v), an C18 column (Kromasil 150-C-18, 4.6×150 mm), and PDA detection at 230 nm.

[2] = Evaluation of squalene as a fusogenic oil (OD500/OD600 of anionic nanoemulsions); type: physicochemical; conditions: oil/DOPC/CHEMS nanoemulsions; versus medium-chain and long-chain triglyceride
Description: To compare the fusogenicities of different oils, simple anionic nanoemulsions were prepared. The compositions evaluated were: oil/DOPC/CHEMS (30:40:40 mole/mole). Oil was selected from squalene, medium-chain triglyceride (MCT) from Abitec (Captex 300), long-chain triglyceride (LCT, soybean oil from Sigma-Aldrich). DOPC: dioleoylphosphatidylcholine, CHEMS: cholesterol hemisuccinate. The various formulations were prepared at pH 8.0 in PBS and then diluted into various buffers with different pH values and incubated for 5 min at room temperature prior to OD measurement. OD500 and OD600 were measured to indicate particle size, with larger particle size indicating increased fusogenicity.

fusogenicity [2] | Structure (SMILES) | Calreticulin mRNA level (MC38 cells) | increase of solubility [1]
– | CC[C@H](C)[C@H]1O[C@]2(CC[C@@H]1C)C[C@@H]1C[C@@H](C/C=C(\C)[C@@H](O[C@H]3C[C@H](OC)[C@@H](O[C@H]4C[C@H](OC)[C@@H](O)[C@H](C)O4)[C@H](C)O3)[C@@H](C)/C=C/C=C3\CO[C@@H]4[C@H](O)C(C)=C[C@@H](C(=O)O1)[C@]34O)O2 [IVM, Ivermectin] | did not show significant Calreticulin regulation | 100 fold
– | CCOCc1nc2c(N)nc3ccccc3c2n1CC(C)(C)O [R848, Resiquimod] | – | 2 fold
improved fusogenicity | CC(C)=CCC/C(C)=C/CC/C(C)=C/CC/C=C(\C)CC/C=C(\C)CCC=C(C)C [squalene] | – | –
